What was measured:
[1] = test system: S. mutans biofilms (wildtype and luxS mutant); experiment: Treatment of in vitro biofilm with SDS (detergent resistance); assay type: cell-based, Streptococcus mutans; conditions: 1% SDS, shaken at 150 rpm for one hour
Method: Three samples of wildtype and mutant biofilms grown on glass coverslips were shaken at 150 rpm for one hour. The OD600 of the resulting supernatants were compared.
(§1) Biofilms of S. mutans were grown as follows. Individual sterile culture dishes were filled with 2.5 mL of brain heart infusion broth supplemented with 1% (w/v) sucrose. Next, a sterile 18 mm glass microscope cover slip was added to each dish and the culture dish was covered. Each sample was then inoculated with a defined volume of overnight culture. The dishes were incubated anaerobically at 37° C. overnight.
Biofilms were grown overnight using previously described conditions. For treatment with SDS, cover-slips were removed from overnight incubation and rinsed briefly. These were then placed into a fresh culture dish and 2mL of sterile, 1% (w/v) SDS solution was added to each dish. The biofilms were placed on a standard shaker set at 150 rpm for one hour at room temperature. […] These samples were measured for their OD600 values. […]
(§2) As biofilms are known to be very resistant to detergents and biocides, we were also interested to determine if this property was influenced by the luxS mutation. […] These supernatants were then checked by microscopy to ensure that cells were not clumped, and subsequently, measured for the OD600. […]

[2] = test system: wildtype S. mutans biofilms; experiment: Treatment of in vitro wildtype biofilm with ampicillin; assay type: cell-based, Streptococcus mutans; conditions: 16 hours
Method: as §1
Biofilms were grown overnight using previously described conditions. For treatment with SDS, cover-slips were removed from overnight incubation and rinsed briefly. These were then placed into a fresh culture dish and 2mL of sterile, 1% (w/v) SDS solution was added to each dish. The biofilms were placed on a standard shaker set at 150 rpm for one hour at room temperature. Next, supernatant samples were checked at 40× magnification to confirm that cells were fully individualized and not connected in chains. These samples were measured for their OD600 values. For treatment with antibiotics, biofilms were again grown under standard conditions overnight. […]
as §2

[3] = test system: V. harveyi BB170 (AI-2 reporter strain); experiment: AI-2 luminescence reporter assay of S. mutans conditioned media; assay type: cell-based, Vibrio harveyi; conditions: S. mutans incubated 3 hours in AB media with sucrose at 1% final concentration
Method: S. mutans was grown and assayed as described in Materials and Methods. Cells were grown overnight and resuspended to an OD600 of 0.4 in reporter assay (AB) media and incubated with aeration for 3 hours at 37° C. One sample was incubated in AB alone, while the other had sucrose added to a final concentration of 1%.
The AI-2 luminescence reporter assay was performed essentially as described (38), with the following modifications. To obtain cell free conditioned media, S. mutans was grown overnight as described. Stationary phase cells were resuspended in AB media to an OD600 of 0.4. Cells were then incubated at 37° C. with aeration for 3 hrs. […]
To determine luminescence, an overnight culture of V. harveyi BB170 was diluted 1:1000 into fresh AB medium and 180 μL of cells was added to each 1.5 mL microfuge tube. […]
To determine levels of background luminescence, a sample containing 200 μL of 1:1000 diluted V. harveyi was also included. […] All samples were measured hourly until peak induction at the 3 hr time point. Measurements were collected using a TD 20/20 luminometer and expressed as arbitrary luminescence units.
Since S. mutans is an acidogenic bacterium, pH readings were taken to ensure that there were no negative effects due to lowered pH.

With `CCCCCCCCCCCCOS(=O)(=O)[O-].[Na+]` [SDS] as the compound, how does the “OD600 of supernatant, wildtype relative to luxS mutant” value [1] read?
Its value is “about 6 fold”.

For `CC1(C)S[C@@H]2[C@H](NC(=O)[C@H](N)c3ccccc3)C(=O)N2[C@H]1C(=O)O` [ampicillin], which “cells surviving ampicillin treatment” value ([2]; 50 μg/mL ampicillin) is on record?
The value was under 1%.

What about the “cells surviving ampicillin treatment” value ([2]; 500 μg/mL ampicillin) of the same compound?
The value was “none survived”.

`OC[C@H]1O[C@@](CO)(O[C@H]2O[C@H](CO)[C@@H](O)[C@H](O)[C@H]2O)[C@@H](O)[C@@H]1O` [sucrose] was tested. Which “luminescence (AI-2 induction) relative to background” value [3] did it give?
Its value is “potent reduction in luminescence to below background values”.

Source: patent US7427408B2, “Quorum sensing and biofilm formation” (priority 2002, dated 2008)
